Source: ChEMBL document CHEMBL1914371, “Development of a bivalent dopamine D₂ receptor agonist” (J Med Chem, 2011)

Key:
[1] = molecular target: T1, D(2) dopamine receptor (Homo sapiens, UniProt P14416); assay: Displacement of [3H]spiperone from human DRD2 short receptor expressed in chinese hamster CHO cells by radioligand binding assay; format: cell-based
[2] = molecular target: D(1A) dopamine receptor (Sus scrofa, UniProt P50130); assay: Displacement of [3H]SCH 23390 from pig dopamine D1 receptor in striatal membrane; format: cell membranes, Striatum
D(1A) dopamine receptor, sequence (P50130 whole entry): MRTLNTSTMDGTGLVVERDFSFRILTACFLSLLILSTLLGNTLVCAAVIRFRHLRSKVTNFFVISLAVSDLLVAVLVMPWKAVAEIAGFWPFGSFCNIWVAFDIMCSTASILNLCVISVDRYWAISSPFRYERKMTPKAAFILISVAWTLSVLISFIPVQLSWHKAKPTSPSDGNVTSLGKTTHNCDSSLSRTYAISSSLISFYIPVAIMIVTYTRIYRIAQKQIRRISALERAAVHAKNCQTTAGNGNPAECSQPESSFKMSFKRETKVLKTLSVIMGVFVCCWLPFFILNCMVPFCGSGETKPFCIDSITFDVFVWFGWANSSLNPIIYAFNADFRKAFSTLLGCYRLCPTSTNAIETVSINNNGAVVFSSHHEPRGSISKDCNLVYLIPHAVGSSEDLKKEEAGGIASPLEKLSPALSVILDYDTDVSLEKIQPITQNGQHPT

[3] = molecular target: T1, D(2) dopamine receptor; assay: Antagonist activity at DRD2 Long receptor expressed in CHO cells assessed as […] of forskolin-stimulated cAMP accumulation by bioluminescence assay relative to quinpirole; format: functional, cell-based
[4] = molecular target: T2, D(4) dopamine receptor (Homo sapiens, UniProt P21917); assay: Displacement of [3H]spiperone from human dopamine D4.4 receptor expressed in chinese hamster CHO cells by radioligand binding assay; format: cell-based
T2 sequence (P21917 whole entry): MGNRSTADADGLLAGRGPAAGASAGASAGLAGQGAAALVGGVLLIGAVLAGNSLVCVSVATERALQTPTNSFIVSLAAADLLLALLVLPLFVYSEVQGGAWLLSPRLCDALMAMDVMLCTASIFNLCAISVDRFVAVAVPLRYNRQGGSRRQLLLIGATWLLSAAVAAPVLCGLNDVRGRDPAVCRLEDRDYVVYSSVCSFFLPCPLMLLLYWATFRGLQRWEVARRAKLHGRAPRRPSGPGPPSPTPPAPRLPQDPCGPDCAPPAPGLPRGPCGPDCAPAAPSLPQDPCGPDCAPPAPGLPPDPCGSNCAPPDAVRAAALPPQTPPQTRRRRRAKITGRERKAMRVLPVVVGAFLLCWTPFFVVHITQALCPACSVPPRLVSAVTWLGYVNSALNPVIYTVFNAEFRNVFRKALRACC

[5] = molecular target: T1, D(2) dopamine receptor; assay: Displacement of [3H]spiperone from human DRD2 Long receptor expressed in chinese hamster CHO cells by radioligand binding assay; format: cell-based
[6] = molecular target: D(3) dopamine receptor (Homo sapiens, UniProt P35462); assay: Displacement of [3H]spiperone from human dopamine D3 receptor expressed in chinese hamster CHO cells by radioligand binding assay; format: cell-based
D(3) dopamine receptor, sequence (P35462 whole entry): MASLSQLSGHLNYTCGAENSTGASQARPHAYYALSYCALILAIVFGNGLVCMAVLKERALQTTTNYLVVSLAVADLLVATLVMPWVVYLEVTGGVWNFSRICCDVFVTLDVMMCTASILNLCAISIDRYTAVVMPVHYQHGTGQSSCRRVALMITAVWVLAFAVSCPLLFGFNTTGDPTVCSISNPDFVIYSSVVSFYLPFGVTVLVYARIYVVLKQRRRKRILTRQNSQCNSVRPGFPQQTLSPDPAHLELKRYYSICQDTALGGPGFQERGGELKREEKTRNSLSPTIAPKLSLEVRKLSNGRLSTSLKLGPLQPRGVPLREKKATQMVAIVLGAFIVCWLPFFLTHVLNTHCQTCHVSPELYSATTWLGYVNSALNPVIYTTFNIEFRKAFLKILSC

[7] = molecular target: T1, D(2) dopamine receptor; assay: Agonist activity at DRD2 Long receptor expressed in CHO cells assessed as inhibition of forskolin-stimulated cAMP accumulation by bioluminescence assay; format: functional, cell-based
[8] = molecular target: T1, D(2) dopamine receptor; assay: Partial agonist activity at DRD2 Long receptor expressed in CHO cells assessed as inhibition of forskolin-stimulated cAMP accumulation by bioluminescence assay; format: functional, cell-based
[9] = molecular target: T1, D(2) dopamine receptor; assay: Partial agonist activity at DRD2 Long receptor expressed in CHO cells assessed as inhibition of forskolin-stimulated cAMP accumulation by bioluminescence assay relative to quinpirole; format: functional, cell-based

T1 sequence (P14416 whole entry): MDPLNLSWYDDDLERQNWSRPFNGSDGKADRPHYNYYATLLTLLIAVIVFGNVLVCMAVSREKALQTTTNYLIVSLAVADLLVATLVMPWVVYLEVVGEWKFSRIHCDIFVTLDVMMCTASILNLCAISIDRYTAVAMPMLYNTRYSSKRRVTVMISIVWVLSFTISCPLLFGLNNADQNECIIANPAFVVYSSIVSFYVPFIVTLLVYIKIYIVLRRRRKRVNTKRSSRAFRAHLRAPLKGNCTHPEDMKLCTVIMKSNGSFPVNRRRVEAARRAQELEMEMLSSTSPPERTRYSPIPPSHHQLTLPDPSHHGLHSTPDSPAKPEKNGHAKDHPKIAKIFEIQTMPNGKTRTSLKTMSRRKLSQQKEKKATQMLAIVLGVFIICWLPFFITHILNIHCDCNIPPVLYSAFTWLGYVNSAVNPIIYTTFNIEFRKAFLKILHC

| Ki [1] [nM] | Ki [2] [nM] | Efficacy [3] [%] | Ki [4] [nM] | Ki [5] [nM] | Ki [6] [nM] | EC50 [7] [nM] | EC50 [8] [nM] | Efficacy [9] [%] | Compound |
| --- | --- | --- | --- | --- | --- | --- | --- | --- | --- |
| 17 | 200 | < 3 | 40 | 25 | 2 | – | – | – | CCCN(CCCCNC(=O)c1ccc(OCCCc2cn(CCCCCCCCn3cc(CCCOc4ccc(C(=O)NCCCCN5CCN(c6ccccc6OC)CC5)cc4OC)nn3)nn2)c(OC)c1)C1Cc2ccccc2C1 |
| 8.8 | 330 | – | 22 | 14 | 1.2 | – | 380 | 13 | CCCN(CCCCNC(=O)c1ccc(OCCCc2cn(CCCCCCCCn3cc(CCCOc4ccc(CN5CCN(c6ccccc6OC)CC5)cc4OC)nn3)nn2)c(OC)c1)C1Cc2ccccc2C1 |
| 16 | 510 | – | 34 | 16 | 1.8 | 440 | – | – | CCCN(CCCCNC(=O)c1ccc(OCCCc2cn(CCCCCCCCn3cc(CCCOc4ccc(C(=O)NCCCCN(CCC)C5Cc6ccccc6C5)cc4OC)nn3)nn2)c(OC)c1)C1Cc2ccccc2C1 |

The remaining lines, values behind:

| Compound | Ki [1] [nM] | Ki [2] [nM] | Efficacy [3] [%] | Ki [4] [nM] | Ki [5] [nM] | Ki [6] [nM] | EC50 [7] [nM] | EC50 [8] [nM] | Efficacy [9] [%] |
| --- | --- | --- | --- | --- | --- | --- | --- | --- | --- |
| CCCCn1cc(CCCOc2ccc(C(=O)NCCCCN3CCN(c4ccccc4OC)CC3)cc2OC)nn1 | 12 | 1200 | – | 84 | 17 | 2 | – | – | – |
| CCCCn1cc(CCCOc2ccc(C(=O)NCCCCN(CCC)C3Cc4ccccc4C3)cc2OC)nn1 | 4.1 | 6000 | – | 42 | 12 | 0.71 | 13 | – | – |
| COc1cc(C(=O)NCCCCN2CCN(c3ccccc3OC)CC2)ccc1OCCCc1cn(CCCCCCCCn2cc(CCCOc3ccc(C(=O)NCCCCN4CCN(c5ccccc5OC)CC4)cc3OC)nn2)nn1 | 110 | 2800 | – | 660 | 110 | 12 | – | – | – |
